Measured values as given in ChEMBL document CHEMBL1201862, “PubChem BioAssay data set” (2004).
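Interpolation was linear, between the two tested concentrations surrounding the appropriate level; five concentrations were tested over 48 hours in 96-well plates. Here, GI50 denotes the concentration required for 50% inhibition of growth.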 Active and inactive are the calls of the source. Rule as the data show it: active = GI50 up to about 1.1 µM and inactive = higher.

Legend:
Test in all cases: NCI-60 cell line screen, 48 h
HCT-116 = tested on: HCT-116
SF-268 = tested on: SF-268
OVCAR-3 = tested on: OVCAR-3
U-251 = tested on: U-251
HT-29 = tested on: HT-29
SW-620 = tested on: SW-620
SK-MEL-28 = tested on: SK-MEL-28
SN12C = tested on: SN12C
LOX IMVI = tested on: LOX IMVI
RPMI-8226 = tested on: RPMI-8226
DU-145 = tested on: DU-145
M14 = tested on: M14
K562 = tested on: K562
TK-10 = tested on: TK-10
SR = tested on: SR
NCI-H226 = tested on: NCI-H226
UO-31 = tested on: UO-31
PC-3 = tested on: PC-3
COLO 205 = tested on: COLO 205
RXF 393 = tested on: RXF 393

Measured: GI50

Cc1cccc(/N=N/C(=O)NNc2cccc(C)c2C)c1C
inactive: HCT-116 29.4 µM | SF-268 34 µM | OVCAR-3 45.4 µM | U-251 35.8 µM | HT-29 56.9 µM | SW-620 34 µM | SK-MEL-28 43.6 µM | SN12C 53.1 µM | LOX IMVI 25.8 µM | RPMI-8226 29.4 µM | DU-145 37 µM | M14 41.8 µM | K562 33.7 µM | TK-10 37.7 µM | SR 33.2 µM | NCI-H226 38.8 µM | UO-31 30.8 µM | PC-3 31.5 µM

CSc1nc(SC)c2c(CN=[N+]=[N-])c(Br)n(Cc3ccccc3)c2n1
inactive: HCT-116 45.6 µM | SF-268 > 100 µM | OVCAR-3 > 100 µM | U-251 71.9 µM | HT-29 23 µM | SW-620 > 100 µM | SK-MEL-28 > 100 µM | SN12C > 100 µM | COLO 205 > 100 µM | LOX IMVI 66.1 µM | RPMI-8226 > 100 µM | DU-145 > 100 µM | M14 > 100 µM | TK-10 > 100 µM | SR 26 µM | NCI-H226 83.8 µM | UO-31 > 100 µM | PC-3 > 100 µM

[O-][S+](Cc1ccccc1)c1ccccc1Cn1cccc1 (centres undefined)
inactive: HCT-116 > 100 µM | SF-268 > 100 µM | OVCAR-3 > 100 µM | U-251 > 100 µM | HT-29 > 100 µM | SW-620 > 100 µM | SK-MEL-28 > 100 µM | SN12C > 100 µM | COLO 205 > 100 µM | LOX IMVI > 100 µM | RPMI-8226 > 100 µM | DU-145 > 100 µM | M14 > 100 µM | K562 71.1 µM | TK-10 > 100 µM | SR 23 µM | RXF 393 42.8 µM | UO-31 > 100 µM | PC-3 > 100 µM

O=C(O)C1(C(=O)O)CC1(C(=O)O)C(=O)O
inactive: HCT-116 > 100 µM | SF-268 > 100 µM | U-251 > 100 µM | HT-29 > 100 µM | SW-620 > 100 µM | SK-MEL-28 > 100 µM | SN12C > 100 µM | COLO 205 > 100 µM | LOX IMVI > 100 µM | DU-145 > 100 µM | M14 > 100 µM | K562 > 100 µM | TK-10 > 100 µM | SR > 100 µM | NCI-H226 > 100 µM | RXF 393 32.6 µM | UO-31 > 100 µM | PC-3 > 100 µM

N/N=C(\N)SCCCCCCCCCCS/C(N)=N/N
inactive: HCT-116 26.8 µM | SF-268 30.3 µM | OVCAR-3 19.7 µM | U-251 17.6 µM | HT-29 14.6 µM | SW-620 17.7 µM | SK-MEL-28 37.8 µM | SN12C 34.9 µM | COLO 205 14.6 µM | LOX IMVI 11.5 µM | RPMI-8226 23.3 µM | DU-145 20.9 µM | M14 29.4 µM | K562 15.1 µM | TK-10 20.3 µM | SR 13.2 µM | NCI-H226 27 µM | UO-31 15.1 µM | PC-3 34.6 µM

CSCCC(NC(c1ccccc1)c1ccccc1)[PH](=O)O (centres undefined)
inactive: HCT-116 > 100 µM | SF-268 > 100 µM | OVCAR-3 > 100 µM | U-251 > 100 µM | HT-29 > 100 µM | SW-620 > 100 µM | SK-MEL-28 > 100 µM | SN12C > 100 µM | COLO 205 > 100 µM | LOX IMVI > 100 µM | RPMI-8226 > 100 µM | DU-145 > 100 µM | M14 > 100 µM | K562 > 100 µM | TK-10 > 100 µM | SR > 100 µM | NCI-H226 > 100 µM | UO-31 > 100 µM | PC-3 > 100 µM

O=[N+]([O-])c1ccc(Cl)cc1-n1nc(-c2ccccc2)cc1-c1ccccc1
inactive: HCT-116 99.8 µM | SF-268 > 100 µM | OVCAR-3 > 100 µM | U-251 > 100 µM | HT-29 97.3 µM | SW-620 > 100 µM | SK-MEL-28 > 100 µM | SN12C > 100 µM | COLO 205 > 100 µM | RPMI-8226 > 100 µM | DU-145 > 100 µM | M14 > 100 µM | K562 > 100 µM | TK-10 > 100 µM | SR > 100 µM | NCI-H226 > 100 µM | UO-31 > 100 µM | PC-3 > 100 µM

Nc1nc2c(c(=O)[nH]1)C(c1ccccc1)CC(=O)N2 (centres undefined)
inactive: HCT-116 > 100 µM | SF-268 > 100 µM | OVCAR-3 > 100 µM | U-251 > 100 µM | HT-29 > 100 µM | SW-620 > 100 µM | SK-MEL-28 > 100 µM | SN12C > 100 µM | COLO 205 > 100 µM | LOX IMVI > 100 µM | RPMI-8226 > 100 µM | DU-145 > 100 µM | M14 > 100 µM | K562 > 100 µM | TK-10 > 100 µM | SR > 100 µM | NCI-H226 > 100 µM | UO-31 > 100 µM | PC-3 > 100 µM

COC(=O)c1c(O)ccc2c1c1cc3ccccc3c(O)c1n2CCc1ccc(OC)c(OC)c1
inactive: HCT-116 97.1 µM | SF-268 76.4 µM | OVCAR-3 68.2 µM | U-251 > 100 µM | HT-29 1.79 µM | SK-MEL-28 17.4 µM | SN12C > 100 µM | COLO 205 15.5 µM | RPMI-8226 18.9 µM | DU-145 96.6 µM | M14 86.7 µM | K562 87.1 µM | TK-10 > 100 µM | SR 38.4 µM | NCI-H226 > 100 µM | RXF 393 > 100 µM | UO-31 84.1 µM | PC-3 59.8 µM

COC(NC(N)=O)C(=O)O (centres undefined)
inactive: HCT-116 > 100 µM | SF-268 > 100 µM | OVCAR-3 > 100 µM | U-251 > 100 µM | HT-29 > 100 µM | SW-620 > 100 µM | SK-MEL-28 > 100 µM | SN12C > 100 µM | COLO 205 > 100 µM | RPMI-8226 > 100 µM | DU-145 > 100 µM | M14 > 100 µM | K562 > 100 µM | TK-10 > 100 µM | SR > 100 µM | NCI-H226 > 100 µM | RXF 393 > 100 µM | UO-31 > 100 µM | PC-3 > 100 µM

Cc1ccc(C(=O)Oc2ccccc2)cc1/N=N/N(C)C
inactive: HCT-116 > 100 µM | SF-268 > 87.7 µM | OVCAR-3 43.4 µM | U-251 > 100 µM | HT-29 37.1 µM | SW-620 > 100 µM | SK-MEL-28 > 100 µM | SN12C > 100 µM | COLO 205 > 100 µM | LOX IMVI 59.8 µM | RPMI-8226 > 100 µM | DU-145 > 100 µM | M14 > 100 µM | K562 76.4 µM | TK-10 > 100 µM | SR > 100 µM | NCI-H226 > 100 µM | UO-31 > 100 µM | PC-3 > 100 µM

Clc1cc2nnn(C3CCCO3)c2cc1Cl (centres undefined)
inactive: HCT-116 > 100 µM | SF-268 > 100 µM | OVCAR-3 > 100 µM | U-251 > 100 µM | HT-29 > 100 µM | SN12C > 100 µM | COLO 205 > 100 µM | DU-145 > 100 µM | M14 > 100 µM | K562 > 100 µM | TK-10 > 100 µM | SR 45.8 µM | NCI-H226 > 100 µM | RXF 393 > 100 µM | PC-3 > 100 µM

Cc1ccc(CC2(OCCN(C)C)CCC(C(C)(C)C)CC2)cc1 (centres undefined)
inactive: HCT-116 2.26 µM | SF-268 9.33 µM | OVCAR-3 11.9 µM | U-251 2.41 µM | HT-29 2.23 µM | SW-620 2.45 µM | SK-MEL-28 1.91 µM | SN12C 5.97 µM | COLO 205 1.48 µM | LOX IMVI 1.63 µM | RPMI-8226 2.21 µM | DU-145 5.47 µM | M14 1.87 µM | K562 1.87 µM | TK-10 6.87 µM | SR 2.08 µM | NCI-H226 5.28 µM | UO-31 5.33 µM | PC-3 3.89 µM

CC(C)(C)OC(=O)c1cnc(Cl)cn1
inactive: HCT-116 33.6 µM | SF-268 55.5 µM | U-251 33.8 µM | HT-29 46.9 µM | SW-620 55.8 µM | SK-MEL-28 37.8 µM | SN12C 31.8 µM | COLO 205 71.3 µM | LOX IMVI 23.8 µM | RPMI-8226 23.7 µM | DU-145 87.5 µM | M14 29.4 µM | K562 28.4 µM | TK-10 > 100 µM | SR 45 µM | NCI-H226 34.9 µM | UO-31 6.19 µM | PC-3 64.7 µM

CN/C(=N\CCSCc1nc[nH]c1C)NC#N [CIMETIDINE]
inactive: HCT-116 > 100 µM | SF-268 > 100 µM | OVCAR-3 > 100 µM | U-251 > 100 µM | HT-29 > 100 µM | SW-620 > 100 µM | SK-MEL-28 > 100 µM | SN12C > 100 µM | COLO 205 > 100 µM | LOX IMVI > 100 µM | DU-145 > 100 µM | M14 > 100 µM | K562 > 100 µM | SR > 100 µM | NCI-H226 > 100 µM | RXF 393 > 100 µM | UO-31 > 100 µM | PC-3 > 100 µM
